Reference: ChEMBL document CHEMBL4507311, “Data for DCP probe A-1155463” (2021)

Key:
[1] = target: Calcitonin-gene-related peptide receptor, CALCRL/RAMP1 (Homo sapiens) (UniProt O60894+Q16602); assay: CGRP (h) Eurofins-Cerep binding assay; type: protein-complex assay; parameters: ligand concentration 0.03 nM; settings: filed as agonist, Compound concentration 10.0 uM
[2] = target: L-type Ca2+ channel (dihydropyridine site) (Rattus norvegicus, UniProt P22002+P27732+Q02485); assay: Ca2+ channel (L, dihydropyridine site) Eurofins-Cerep binding assay; type: protein assay; parameters: incubation time 90 min, incubation temperature RT, ligand concentration 0.1 nM; settings: rat cerebral cortex, probe [3H]nitrendipine (0.1 nM), compound concentration 10 uM, read-out: % Inhibition of Control Specific Binding (Mean n=2)
[3] = target: T1, 5-hydroxytryptamine receptor 2C (Homo sapiens) (UniProt P28335); assay: 5-HT2C (h) Eurofins-Cerep binding assay; parameters: ligand concentration 1 nM; settings: filed as antagonist, Compound concentration 10.0 uM
T1 sequence (whole entry): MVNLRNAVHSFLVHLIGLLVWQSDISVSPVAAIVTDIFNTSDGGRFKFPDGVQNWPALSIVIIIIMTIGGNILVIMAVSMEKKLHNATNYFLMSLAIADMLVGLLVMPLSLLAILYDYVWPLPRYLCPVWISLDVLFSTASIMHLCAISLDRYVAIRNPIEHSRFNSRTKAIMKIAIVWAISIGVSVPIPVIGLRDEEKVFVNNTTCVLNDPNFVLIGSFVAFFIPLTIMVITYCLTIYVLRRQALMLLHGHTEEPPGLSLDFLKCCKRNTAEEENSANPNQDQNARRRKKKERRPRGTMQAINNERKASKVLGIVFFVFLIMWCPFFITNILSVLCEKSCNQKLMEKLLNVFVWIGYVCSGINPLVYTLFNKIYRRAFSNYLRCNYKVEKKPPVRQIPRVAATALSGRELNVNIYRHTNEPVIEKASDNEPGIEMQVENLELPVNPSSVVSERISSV

[4] = target: Beta-2 adrenergic receptor (Homo sapiens) (UniProt P07550); assay: Beta2 (h) Eurofins-Cerep binding assay; parameters: ligand concentration 0.3 nM; settings: filed as antagonist, Compound concentration 10.0 uM
[5] = target: Muscarinic acetylcholine receptor M1 (Homo sapiens) (UniProt P11229); assay: M1 (h) Eurofins-Cerep binding assay; parameters: ligand concentration 2 nM; settings: filed as antagonist, Compound concentration 10.0 uM
[6] = target: Type-1 angiotensin II receptor (Homo sapiens) (UniProt P30556); assay: AT1 (h) Eurofins-Cerep binding assay; parameters: ligand concentration 0.05 nM; settings: filed as antagonist, Compound concentration 10.0 uM
[7] = target: MAO-B (amine oxidase [flavin-containing] B) (Homo sapiens, UniProt P27338); assay: MAO-B (h) recombinant enzyme Eurofins-Cerep enzyme and uptake assay; parameters: incubation time 60 min, incubation temperature 37°C, substrate/stimulus/tracer D-Luciferin derivative (4 µM); settings: probe D-Luciferin derivative (4 µM), compound concentration 10 uM, read-out: % Inhibition of Control Values (Mean n=2)
[8] = target: Sodium/potassium-transporting ATPase (Sus scrofa) (UniProt P05027+P05024+D2WKD8+D2WKD7+F1ST41); assay: ATPase (Na+/K+) Eurofins-Cerep enzyme and uptake assay; type: protein-complex assay; settings: Compound concentration 10.0 uM
[9] = target: Histamine H1 receptor (Homo sapiens) (UniProt P35367); assay: H1 (h) Eurofins-Cerep binding assay; parameters: ligand concentration 1 nM; settings: filed as antagonist, Compound concentration 10.0 uM
[10] = target: Cannabinoid receptor 1 (Homo sapiens) (UniProt P21554); assay: CB1 (h) Eurofins-Cerep binding assay; parameters: ligand concentration 0.5 nM; settings: filed as agonist, Compound concentration 10.0 uM
[11] = target: Delta-type opioid receptor (Homo sapiens, UniProt P41143); assay: delta (DOP) (h) Eurofins-Cerep binding assay; parameters: ligand concentration 0.5 nM; settings: filed as agonist, Compound concentration 10.0 uM
[12] = target: Sodium-dependent dopamine transporter (Homo sapiens) (UniProt Q01959); assay: dopamine transporter (h) Eurofins-Cerep binding assay; parameters: ligand concentration 4 nM; settings: filed as antagonist, Compound concentration 10.0 uM
[13] = target: Sigma non-opioid intracellular receptor 1 (Homo sapiens, UniProt Q99720); assay: sigma (non-selective) (h) Eurofins-Cerep binding assay; parameters: ligand concentration 10 nM; settings: filed as agonist, Compound concentration 10.0 uM
[14] = target: Kappa-type opioid receptor (Homo sapiens) (UniProt P41145); assay: kappa (h) (KOP) Eurofins-Cerep binding assay; parameters: ligand concentration 0.5 nM; settings: filed as agonist, Compound concentration 10.0 uM
[15] = target: 5-hydroxytryptamine receptor 4 (Homo sapiens) (UniProt Q13639); assay: 5-HT4 e (h) Eurofins-Cerep binding assay; parameters: ligand concentration 0.3 nM; settings: filed as antagonist, Compound concentration 10.0 uM
[16] = target: 5-hydroxytryptamine receptor 1B (Homo sapiens) (UniProt P28222); assay: 5-HT1B(h) Eurofins-Cerep binding assay; parameters: ligand concentration 1 nM; settings: filed as antagonist, Compound concentration 10.0 uM
[17] = target: T2, Alpha-2B adrenergic receptor (Homo sapiens) (UniProt P18089); assay: Alpha2B (h) Eurofins-Cerep binding assay; parameters: ligand concentration 2.5 nM; settings: filed as antagonist, Compound concentration 10.0 uM
T2 sequence (whole entry): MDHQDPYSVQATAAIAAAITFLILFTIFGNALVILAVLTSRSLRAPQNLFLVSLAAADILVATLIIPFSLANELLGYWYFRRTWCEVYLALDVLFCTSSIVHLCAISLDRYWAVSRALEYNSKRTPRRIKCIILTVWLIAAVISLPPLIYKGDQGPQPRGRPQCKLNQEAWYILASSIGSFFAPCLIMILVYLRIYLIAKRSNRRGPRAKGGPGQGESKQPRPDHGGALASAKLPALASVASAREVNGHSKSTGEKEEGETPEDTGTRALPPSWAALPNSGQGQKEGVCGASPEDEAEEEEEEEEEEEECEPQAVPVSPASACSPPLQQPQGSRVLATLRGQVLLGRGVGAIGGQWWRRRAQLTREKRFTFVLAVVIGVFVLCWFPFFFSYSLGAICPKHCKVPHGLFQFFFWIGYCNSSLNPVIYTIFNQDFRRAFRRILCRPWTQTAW

[18] = target: Melatonin receptor type 1B (Homo sapiens) (UniProt P49286); assay: MT2 (ML1B) (h) Eurofins-Cerep binding assay; parameters: ligand concentration 0.05 nM; settings: filed as agonist, Compound concentration 10.0 uM
[19] = target: D(1A) dopamine receptor (Homo sapiens) (UniProt P21728); assay: D1 (h) Eurofins-Cerep binding assay; parameters: ligand concentration 0.3 nM; settings: filed as antagonist, Compound concentration 10.0 uM
[20] = target: 5-hydroxytryptamine receptor 7 (Homo sapiens) (UniProt P34969); assay: 5-HT7 (h) Eurofins-Cerep binding assay; parameters: ligand concentration 4 nM; settings: filed as agonist, Compound concentration 10.0 uM
[21] = target: Vasopressin V1a receptor (Homo sapiens) (UniProt P37288); assay: V1 a (h) Eurofins-Cerep binding assay; parameters: ligand concentration 0.3 nM; settings: filed as agonist, Compound concentration 10.0 uM
[22] = target: T3, 5-hydroxytryptamine receptor 3A (Homo sapiens) (UniProt P46098); assay: 5-HT3 (h) Eurofins-Cerep binding assay; parameters: ligand concentration 0.5 nM; settings: filed as antagonist, Compound concentration 10.0 uM
T3 sequence (whole entry): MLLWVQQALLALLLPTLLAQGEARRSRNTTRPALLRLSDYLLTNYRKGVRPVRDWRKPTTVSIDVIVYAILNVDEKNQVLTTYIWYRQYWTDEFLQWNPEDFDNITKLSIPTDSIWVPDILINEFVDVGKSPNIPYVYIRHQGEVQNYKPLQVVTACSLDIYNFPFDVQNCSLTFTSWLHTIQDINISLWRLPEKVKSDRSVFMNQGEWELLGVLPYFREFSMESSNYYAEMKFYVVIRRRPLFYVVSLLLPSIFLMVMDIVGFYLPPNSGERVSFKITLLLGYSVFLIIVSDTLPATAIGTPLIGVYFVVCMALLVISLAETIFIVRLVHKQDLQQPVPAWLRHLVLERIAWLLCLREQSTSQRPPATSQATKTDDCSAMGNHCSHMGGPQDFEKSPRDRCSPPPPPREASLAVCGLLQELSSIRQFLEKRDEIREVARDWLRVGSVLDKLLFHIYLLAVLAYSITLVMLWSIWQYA

[23] = target: Adenosine receptor A2b (Homo sapiens) (UniProt P29275); assay: A2B (h) Eurofins-Cerep binding assay; parameters: ligand concentration 5 nM; settings: filed as antagonist, Compound concentration 10.0 uM
[24] = target: Prostaglandin G/H synthase 1 (Homo sapiens) (UniProt P23219); assay: COX1(h) Eurofins-Cerep enzyme and uptake assay; settings: Compound concentration 10.0 uM
[25] = target: B2 bradykinin receptor (Homo sapiens) (UniProt P30411); assay: B2 (h) Eurofins-Cerep binding assay; parameters: ligand concentration 0.3 nM; settings: filed as agonist, Compound concentration 10.0 uM
[26] = target: Muscarinic acetylcholine receptor M3 (Homo sapiens) (UniProt P20309); assay: M3 (h) Eurofins-Cerep binding assay; parameters: ligand concentration 0.2 nM; settings: filed as antagonist, Compound concentration 10.0 uM

Sigma non-opioid intracellular receptor 1, sequence (Q99720 whole entry): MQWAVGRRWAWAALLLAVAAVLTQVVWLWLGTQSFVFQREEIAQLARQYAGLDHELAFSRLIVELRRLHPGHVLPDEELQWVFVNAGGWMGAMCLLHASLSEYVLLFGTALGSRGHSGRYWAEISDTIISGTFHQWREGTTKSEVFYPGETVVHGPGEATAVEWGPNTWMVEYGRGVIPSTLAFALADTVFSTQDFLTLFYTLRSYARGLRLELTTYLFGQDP
D(1A) dopamine receptor (Homo sapiens), sequence (P21728 whole entry): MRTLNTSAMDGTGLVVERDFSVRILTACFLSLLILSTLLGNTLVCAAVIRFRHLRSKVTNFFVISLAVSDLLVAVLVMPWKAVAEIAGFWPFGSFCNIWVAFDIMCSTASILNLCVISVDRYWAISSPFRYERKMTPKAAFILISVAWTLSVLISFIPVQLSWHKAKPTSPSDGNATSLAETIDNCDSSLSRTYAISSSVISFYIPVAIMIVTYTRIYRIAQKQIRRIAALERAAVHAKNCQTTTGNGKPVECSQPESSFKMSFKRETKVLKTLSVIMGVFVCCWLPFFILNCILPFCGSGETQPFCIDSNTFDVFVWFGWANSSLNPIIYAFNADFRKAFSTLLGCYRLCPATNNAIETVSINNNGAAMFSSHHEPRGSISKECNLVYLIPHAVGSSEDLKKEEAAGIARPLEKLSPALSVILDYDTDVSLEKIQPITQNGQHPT
Sodium-dependent dopamine transporter (Homo sapiens), sequence (Q01959 whole entry): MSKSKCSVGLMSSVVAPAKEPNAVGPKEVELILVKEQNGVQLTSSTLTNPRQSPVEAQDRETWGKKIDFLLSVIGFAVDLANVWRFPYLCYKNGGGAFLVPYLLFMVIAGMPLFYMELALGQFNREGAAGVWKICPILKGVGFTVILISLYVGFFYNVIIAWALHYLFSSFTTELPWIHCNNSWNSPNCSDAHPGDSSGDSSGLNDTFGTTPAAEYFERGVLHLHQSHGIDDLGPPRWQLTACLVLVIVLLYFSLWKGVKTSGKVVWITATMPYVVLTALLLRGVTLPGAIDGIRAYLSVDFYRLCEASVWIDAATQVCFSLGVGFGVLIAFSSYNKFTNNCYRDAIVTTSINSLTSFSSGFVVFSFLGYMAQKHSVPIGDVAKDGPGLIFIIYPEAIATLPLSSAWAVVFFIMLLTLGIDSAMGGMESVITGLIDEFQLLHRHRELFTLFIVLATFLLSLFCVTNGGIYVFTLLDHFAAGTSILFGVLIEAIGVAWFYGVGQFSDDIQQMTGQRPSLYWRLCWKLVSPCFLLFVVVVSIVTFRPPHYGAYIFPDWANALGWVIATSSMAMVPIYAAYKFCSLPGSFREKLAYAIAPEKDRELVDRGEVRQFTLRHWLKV
5-hydroxytryptamine receptor 1B (Homo sapiens), sequence (P28222 whole entry): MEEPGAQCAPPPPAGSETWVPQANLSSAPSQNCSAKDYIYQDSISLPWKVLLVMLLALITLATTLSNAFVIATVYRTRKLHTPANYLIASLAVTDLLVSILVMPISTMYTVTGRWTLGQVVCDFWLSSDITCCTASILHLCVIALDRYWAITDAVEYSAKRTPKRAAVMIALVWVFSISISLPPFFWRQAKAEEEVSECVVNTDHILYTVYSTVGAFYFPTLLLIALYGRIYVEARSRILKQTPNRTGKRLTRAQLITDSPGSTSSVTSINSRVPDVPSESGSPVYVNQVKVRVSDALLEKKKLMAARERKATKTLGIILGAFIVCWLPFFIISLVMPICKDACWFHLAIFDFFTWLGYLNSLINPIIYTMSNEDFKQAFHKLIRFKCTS
Cannabinoid receptor 1 (Homo sapiens), sequence (P21554 whole entry): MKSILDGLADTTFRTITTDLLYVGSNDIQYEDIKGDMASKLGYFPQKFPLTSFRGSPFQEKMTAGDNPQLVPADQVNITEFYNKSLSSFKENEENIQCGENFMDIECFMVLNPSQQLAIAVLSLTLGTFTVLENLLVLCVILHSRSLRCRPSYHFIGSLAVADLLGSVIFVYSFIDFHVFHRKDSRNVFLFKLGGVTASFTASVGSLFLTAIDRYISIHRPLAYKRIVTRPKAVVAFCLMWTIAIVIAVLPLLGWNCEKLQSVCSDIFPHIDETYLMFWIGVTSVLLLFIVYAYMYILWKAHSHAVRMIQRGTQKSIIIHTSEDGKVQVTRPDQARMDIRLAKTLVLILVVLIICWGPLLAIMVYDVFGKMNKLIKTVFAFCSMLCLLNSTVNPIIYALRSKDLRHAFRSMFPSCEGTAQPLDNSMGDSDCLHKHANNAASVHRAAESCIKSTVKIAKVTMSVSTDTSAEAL
Kappa-type opioid receptor (Homo sapiens), sequence (P41145 whole entry): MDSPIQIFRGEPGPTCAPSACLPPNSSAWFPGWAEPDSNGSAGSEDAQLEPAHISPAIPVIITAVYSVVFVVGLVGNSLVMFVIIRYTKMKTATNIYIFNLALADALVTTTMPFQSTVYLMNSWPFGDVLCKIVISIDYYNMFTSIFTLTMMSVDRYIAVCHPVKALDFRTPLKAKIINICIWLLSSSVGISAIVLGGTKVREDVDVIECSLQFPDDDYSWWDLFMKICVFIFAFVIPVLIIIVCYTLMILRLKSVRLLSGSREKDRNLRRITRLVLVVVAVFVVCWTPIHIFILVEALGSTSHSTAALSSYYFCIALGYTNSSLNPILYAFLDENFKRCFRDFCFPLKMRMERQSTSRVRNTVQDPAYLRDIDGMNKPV
Type-1 angiotensin II receptor (Homo sapiens), sequence (P30556 whole entry): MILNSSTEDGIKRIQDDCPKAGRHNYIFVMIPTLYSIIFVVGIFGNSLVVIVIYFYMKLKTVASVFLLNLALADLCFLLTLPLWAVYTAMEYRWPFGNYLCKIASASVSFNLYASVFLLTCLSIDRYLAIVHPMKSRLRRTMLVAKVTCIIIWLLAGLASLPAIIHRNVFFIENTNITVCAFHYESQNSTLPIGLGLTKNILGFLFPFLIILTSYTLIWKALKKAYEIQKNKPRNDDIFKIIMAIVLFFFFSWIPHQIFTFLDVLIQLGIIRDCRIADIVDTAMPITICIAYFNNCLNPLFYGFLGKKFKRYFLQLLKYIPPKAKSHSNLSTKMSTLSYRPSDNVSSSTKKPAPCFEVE
5-hydroxytryptamine receptor 7 (Homo sapiens), sequence (P34969 whole entry): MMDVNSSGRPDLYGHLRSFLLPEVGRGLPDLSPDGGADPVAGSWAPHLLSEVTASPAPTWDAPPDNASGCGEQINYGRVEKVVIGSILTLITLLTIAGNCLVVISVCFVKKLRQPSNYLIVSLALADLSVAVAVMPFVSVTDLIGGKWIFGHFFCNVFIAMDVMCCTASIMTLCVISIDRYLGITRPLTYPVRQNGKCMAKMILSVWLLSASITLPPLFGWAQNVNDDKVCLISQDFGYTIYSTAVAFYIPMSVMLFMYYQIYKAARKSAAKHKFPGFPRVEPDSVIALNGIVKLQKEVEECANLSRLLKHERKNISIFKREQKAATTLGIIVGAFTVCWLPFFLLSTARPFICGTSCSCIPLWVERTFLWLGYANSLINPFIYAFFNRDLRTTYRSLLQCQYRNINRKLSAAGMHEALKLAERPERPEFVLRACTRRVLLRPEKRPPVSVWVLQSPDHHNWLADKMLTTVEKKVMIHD
5-hydroxytryptamine receptor 4 (Homo sapiens), sequence (Q13639 whole entry): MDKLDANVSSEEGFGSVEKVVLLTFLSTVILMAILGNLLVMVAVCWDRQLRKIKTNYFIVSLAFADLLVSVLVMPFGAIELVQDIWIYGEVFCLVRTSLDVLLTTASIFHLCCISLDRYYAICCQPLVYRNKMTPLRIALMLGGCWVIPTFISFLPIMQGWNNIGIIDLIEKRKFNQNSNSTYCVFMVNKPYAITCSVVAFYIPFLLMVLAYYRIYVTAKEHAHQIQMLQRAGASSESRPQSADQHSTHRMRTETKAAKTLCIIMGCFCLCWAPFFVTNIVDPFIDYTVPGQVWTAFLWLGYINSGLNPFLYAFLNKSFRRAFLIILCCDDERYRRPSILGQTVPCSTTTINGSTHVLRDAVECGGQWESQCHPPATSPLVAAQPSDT
Adenosine receptor A2b (Homo sapiens), sequence (P29275 whole entry): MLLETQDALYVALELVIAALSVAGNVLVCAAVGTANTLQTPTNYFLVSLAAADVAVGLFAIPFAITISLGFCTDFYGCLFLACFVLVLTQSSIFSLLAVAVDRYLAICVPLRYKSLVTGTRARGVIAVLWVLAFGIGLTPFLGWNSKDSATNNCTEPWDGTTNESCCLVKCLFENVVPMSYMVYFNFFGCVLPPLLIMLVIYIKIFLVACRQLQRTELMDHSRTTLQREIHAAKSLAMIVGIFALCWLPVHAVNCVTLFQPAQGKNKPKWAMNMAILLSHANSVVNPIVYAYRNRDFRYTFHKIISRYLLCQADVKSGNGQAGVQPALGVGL
Melatonin receptor type 1B (Homo sapiens), sequence (P49286 whole entry): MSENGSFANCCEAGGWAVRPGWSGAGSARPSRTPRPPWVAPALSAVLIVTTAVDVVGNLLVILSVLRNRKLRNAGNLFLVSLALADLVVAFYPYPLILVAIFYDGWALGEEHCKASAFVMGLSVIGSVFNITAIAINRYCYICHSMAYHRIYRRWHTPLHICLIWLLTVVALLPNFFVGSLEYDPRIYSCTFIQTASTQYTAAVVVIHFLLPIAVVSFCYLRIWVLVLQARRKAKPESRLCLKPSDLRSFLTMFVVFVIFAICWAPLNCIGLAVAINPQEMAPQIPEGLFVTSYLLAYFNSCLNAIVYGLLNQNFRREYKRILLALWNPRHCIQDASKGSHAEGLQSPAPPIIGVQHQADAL
B2 bradykinin receptor (Homo sapiens), sequence (P30411 whole entry): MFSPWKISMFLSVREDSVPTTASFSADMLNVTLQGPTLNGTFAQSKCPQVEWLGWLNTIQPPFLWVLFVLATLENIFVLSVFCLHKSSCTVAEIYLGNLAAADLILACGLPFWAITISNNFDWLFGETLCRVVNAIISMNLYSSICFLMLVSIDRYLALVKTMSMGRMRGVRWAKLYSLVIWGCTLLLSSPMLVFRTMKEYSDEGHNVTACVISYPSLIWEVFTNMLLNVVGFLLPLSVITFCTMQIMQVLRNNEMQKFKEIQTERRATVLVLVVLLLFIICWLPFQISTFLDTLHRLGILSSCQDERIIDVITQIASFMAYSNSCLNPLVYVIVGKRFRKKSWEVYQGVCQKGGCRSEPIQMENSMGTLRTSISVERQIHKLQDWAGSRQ

SMILES	% Inhibition of Control Specific Binding (Mean n=2) [1] [%]	inhibition at 90 min, 10 µM [2] [%]	% Inhibition of Control Specific Binding (Mean n=2) [3] [%]	% Inhibition of Control Specific Binding (Mean n=2) [4] [%]	% Inhibition of Control Specific Binding (Mean n=2) [5] [%]	% Inhibition of Control Specific Binding (Mean n=2) [6] [%]	inhibition at 60 min, 10 µM [7] [%]	% Inhibition of Control Values (Mean n=2) [8] [%]	% Inhibition of Control Specific Binding (Mean n=2) [9] [%]	% Inhibition of Control Specific Binding (Mean n=2) [10] [%]	% Inhibition of Control Specific Binding (Mean n=2) [11] [%]	% Inhibition of Control Specific Binding (Mean n=2) [12] [%]	% Inhibition of Control Specific Binding (Mean n=2) [13] [%]	% Inhibition of Control Specific Binding (Mean n=2) [14] [%]	% Inhibition of Control Specific Binding (Mean n=2) [15] [%]	% Inhibition of Control Specific Binding (Mean n=2) [16] [%]	% Inhibition of Control Specific Binding (Mean n=2) [17] [%]	% Inhibition of Control Specific Binding (Mean n=2) [18] [%]	% Inhibition of Control Specific Binding (Mean n=2) [19] [%]	% Inhibition of Control Specific Binding (Mean n=2) [20] [%]	further results
O=C(Nc1nc2ccccc2s1)c1cccc2c1CN(c1nc(C(=O)O)c(CCOc3ccc(-n4ncc5cncnc54)cc3)s1)CC2 [A-1107969]	-9.4	-2.2	1.7	-6.9	-1.6	-3.5	-2	12.6	-9.3	-4.1	-1.8	3.6	-47.8	17	-4	-39.6	-17.8	8.7	3.5	11.4	% Inhibition of Control Specific Binding (Mean n=2) [21]: 4.8%; % Inhibition of Control Specific Binding (Mean n=2) [22]: -5.7%; % Inhibition of Control Specific Binding (Mean n=2) [23]: -14.8%; % Inhibition of Control Values (Mean n=2) [24]: 68.2%; % Inhibition of Control Specific Binding (Mean n=2) [25]: -20.2%; % Inhibition of Control Specific Binding (Mean n=2) [26]: -4.4%
CN(C)CC#Cc1ccc(OCCCc2sc(N3CCc4cccc(C(=O)Nc5nc6ccccc6s5)c4C3)nc2C(=O)O)c(F)c1 [A-1155463]	-6.8	-21.8	4.7	-7	19.1	20.5	-2.2	2	69.2	2.6	77.9	31.6	57.8	34.4	6.7	-7.1	-2.5	20.1	26.2	16.9	% Inhibition of Control Specific Binding (Mean n=2) [21]: 5.3%; % Inhibition of Control Specific Binding (Mean n=2) [22]: 2%; % Inhibition of Control Specific Binding (Mean n=2) [23]: 32.8%; % Inhibition of Control Values (Mean n=2) [24]: 39.5%; % Inhibition of Control Specific Binding (Mean n=2) [25]: -7%; % Inhibition of Control Specific Binding (Mean n=2) [26]: 17.4%
